Article PMC10957239 (Carbohydrate research, 2024)

Target: T1, rhDectin-2 (Homo sapiens, UniProt Q6EIG7)
T1 sequence (Q6EIG7 42-209 limits assumed): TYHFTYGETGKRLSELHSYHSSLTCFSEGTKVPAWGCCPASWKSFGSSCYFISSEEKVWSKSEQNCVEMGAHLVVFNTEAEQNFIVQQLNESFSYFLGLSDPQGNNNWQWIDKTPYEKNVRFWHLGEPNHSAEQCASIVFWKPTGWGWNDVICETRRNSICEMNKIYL
Assay: biolayer interferometry
Type: binding

Kd: 13.6 µM
Structure (SMILES): C=CCO[C@H]1O[C@H](CO)[C@@H](OP(=O)(O)O[C@H]2O[C@H](CO)[C@@H](O)[C@H](O)[C@@H]2O)[C@H](O)[C@@H]1O [compound 7, Allyl α-D-mannopyranoside α-D-mannopyranosyl-4-sodium phosphate]
